The source made the active and inactive calls.
Assays:
HeLa = experiment: HeLa cell cytotoxicity, dose response, cytotoxicity control for MITF activator project, CellTiter-Glo luminescence, cherry-pick samples (AID 540259); format: functional, cell-based; conditions: Homo sapiens
[1] = biological target: T1, Corticotropin-releasing factor receptor 2/Corticotropin-releasing factor-binding protein (Homo sapiens, UniProt P24387+Q13324); experiment: Dose Response confirmation of uHTS hits for small molecule antagonists of the CRF-binding protein and CRF-R2 receptor complex.; format: functional; conditions: read-out: IC50_Mean
T1 sequence (Q13324 whole entry): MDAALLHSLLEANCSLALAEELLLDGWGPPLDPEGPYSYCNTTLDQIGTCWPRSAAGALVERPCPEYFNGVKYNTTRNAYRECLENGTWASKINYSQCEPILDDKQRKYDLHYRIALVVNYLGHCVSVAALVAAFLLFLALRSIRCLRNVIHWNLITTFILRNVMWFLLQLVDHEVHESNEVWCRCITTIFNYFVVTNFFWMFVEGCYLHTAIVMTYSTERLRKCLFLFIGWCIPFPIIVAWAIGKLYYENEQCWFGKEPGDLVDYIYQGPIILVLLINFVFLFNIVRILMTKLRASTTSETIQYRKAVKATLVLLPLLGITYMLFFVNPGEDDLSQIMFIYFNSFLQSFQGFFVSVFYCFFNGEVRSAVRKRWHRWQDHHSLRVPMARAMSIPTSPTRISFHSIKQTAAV
T1 sequence (P24387 whole entry): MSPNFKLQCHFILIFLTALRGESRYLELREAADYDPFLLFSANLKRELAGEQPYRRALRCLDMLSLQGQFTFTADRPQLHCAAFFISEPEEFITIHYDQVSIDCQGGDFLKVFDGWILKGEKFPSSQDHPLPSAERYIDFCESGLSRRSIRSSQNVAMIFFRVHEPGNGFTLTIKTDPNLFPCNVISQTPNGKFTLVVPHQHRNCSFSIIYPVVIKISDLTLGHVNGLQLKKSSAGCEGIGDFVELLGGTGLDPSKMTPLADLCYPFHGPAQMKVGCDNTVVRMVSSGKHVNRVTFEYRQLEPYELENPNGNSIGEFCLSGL

[2] = biological target: T1, Corticotropin-releasing factor receptor 2/Corticotropin-releasing factor-binding protein; experiment: activators of CRF receptor 2 with binding protein – uHTS hits, confirmation (AID 602473); format: functional; conditions: read-out: EC50_Mean
[3] = biological target: Histone-lysine N-methyltransferase NSD2 (Homo sapiens, UniProt O96028); format: biochemical
[4] = biological target: Induced myeloid leukemia cell differentiation protein Mcl-1 (Homo sapiens, UniProt Q07820); format: functional
[5] = biological target: Dual specificity tyrosine-phosphorylation-regulated kinase 1A (Rattus norvegicus, UniProt Q63470); format: biochemical, Homo sapiens
[6] = biological target: FAD-linked sulfhydryl oxidase ALR (Homo sapiens, UniProt P55789); experiment: inhibitors of human ALR sulfhydryl oxidase, dose response, biochemical, H2O2 detection, luminescence, cherry-pick (AID 493248)
Jurkat = experiment: SAR Analysis of small molecule inhibitors of T-cell specific antigen receptor-induced NF-kB activation in a Jurkat cell line using a luminescence assay - Set 2. [Related pubchem assays (depositor defined):AID435003, AID435012, AID465]; format: functional, cell-based; conditions: Homo sapiens
[7] = biological target: Luciferin 4-monooxygenase (Photinus pyralis, UniProt P08659); experiment: In vitro luciferase assay using purified luciferase. [Related pubchem assays: 1299, 1270, 1295, 1375, 1287, 1281, 1293, 1291, 1289, 1280, 465, 1364, 1282, 1372, 1365, 1370, 1367, 1366, 1266, 1373, 1292, 1290, 1302, 1371, 1283, 1271, 1294, 1374, 1368, 1369 ]
HEK293 [8] = experiment: SAR Analysis of small molecule inhibitors of T-cell specific antigen receptor-induced NF-kB activation in a HEK-293T cell line using a luminescence assay - Set 2. [Related pubchem assays (depositor defined):AID435003, AID435012, AID489026]; format: functional, cell-based; conditions: Homo sapiens
HEK293 [9] = experiment: cytotoxicity in HEK293T NF-kB-Luc cells, SAR follow-up, cytotoxicity control for NF-kB activator project, cell-based, resazurin fluorescence (AID 493251); format: functional
HEK293 [10] = experiment: PMA/Ionomycin induced NF-kB luciferase assay in 293- NF-kB-Luc stable cells. [Related pubchem assays: 1299, 1270, 1295, 1375, 1287, 1281, 1293, 1291, 1289, 1280, 465, 1364, 1282, 1372, 1365, 1370, 1367, 1366, 1269, 1373, 1292, 1290, 1302, 1371, 1283, 1271, 1294, 1374, 1368, 1369 ]; format: functional, cell-based; conditions: Homo sapiens
[11] = cytotoxicity in HEK-293T cells, dose response, cytotoxicity control for BCR NF-kB inhibitor project, luminescence, B-cell screen hits (AID 489021); format: functional, cell-based;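 note: HEK-293T cells carrying an NF-kB luciferase reporter; cells exposed to compound for about 14 hours before viability readout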
HEK293 [12] = experiment: inhibitors of LMP1-driven NF-kB reporter, dose response, cell-based, HEK293, luciferase, cherry-pick (AID 588343); format: functional; conditions: Homo sapiens
HEK293 [13] = experiment: Cytotoxicity assay in HEK293 cells. [Related pubchem assays (depositor defined):AID1266, AID1269, AID1270, AID1271, AID1280, AID1281, AID1282, AID1283, AID1287, AID1289, AID1290, AID1291, AID1292, AID1293, AID1294, AID1295, AID1299, AID1302, AID1364, AID1365, AID1366, AID1367, AID1369, AID1370, AID1371, AID1372, AID1373, AID1374, AID1375, AID1384 …; format: functional, cell-based; conditions: Homo sapiens
[14] = biological target: ATP-dependent molecular chaperone HSP82 (Candida albicans (strain WO-1) (Yeast), UniProt C4YTQ8); experiment: loss of DOC-induced GRE-beta-galactosidase reporter signal, dose response, Hsp90 inhibitor project, S. cerevisiae, luminescence (AID 2400); format: functional, cell-based;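 note: beta-galactosidase luminescence from glucocorticoid response element reporter as proxy for Hsp90 function; inhibitor potency where signal loss means Hsp90 inhibition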
[15] = C. albicans growth with fluconazole, confirmation, fluorescence, retest (AID 2467); format: functional, cell-based
[16] = biological target: Serine/threonine-protein phosphatase (Candida dubliniensis (strain CD36 / CBS 7987 / NCPF 3949 / NRRLY-17841) (Yeast), UniProt B9W6M3); experiment: calcineurin pathway inhibitors in yeast reporter, dose response, S. cerevisiae, CDRE-lacZ, luminescence, secondary (AID 2388); format: functional, cell-based;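 note: yeast reporter cells carrying a calcineurin-responsive lacZ construct stimulated with calcium chloride; luminescent beta-galactosidase reporter signal in whole cells rather than isolated phosphatase activity; potency for inhibition where a drop in reporter signal means calcineurin blockade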
[17] = NIH-3T3 fibroblast cytotoxicity, dose response, cytotoxicity control, cell-based, fluorescence, Alamar Blue, secondary assay (AID 2327); format: functional;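 note: NIH-3T3 mouse fibroblasts cultured with fluconazole at 8 µg/mL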
[18] = biological target: T2, Intestinal-type alkaline phosphatase (Homo sapiens, UniProt P09923); experiment: human intestinal alkaline phosphatase activators, dose response, biochemical, luminescence, uHTS hits (AID 463120); format: functional
cells = format: functional, cell-based
[19] = biological target: Intestinal-type alkaline phosphatase (Mus musculus, UniProt P24822); experiment: PubChem AID 488874; format: functional
[20] = biological target: T2, Intestinal-type alkaline phosphatase; experiment: human IAP activators, dose response, biochemical, luminescent, uHTS hits, set 2 (AID 488817); format: functional;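 note: potency of activators that raise enzyme activity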
[21] = Counterscreen for AddAB inhibitors: absorbance-based bacterial cell-based high throughput dose response assay for inhibitors of bacterial viability. [Related pubchem assays (depositor defined):AID435030, AID449728, AID449731, AID488942, AID488955, AID488956]; format: functional
[22] = biological target: T3, Alkaline phosphatase, tissue-nonspecific isozyme (Homo sapiens, UniProt P05186); experiment: TNAP enzyme activators, dose response, selectivity assay for human IAP activator project, biochemical, TNAP isozyme, human IAP uHTS hits (AID 488886); format: functional;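 note: potency of compounds raising TNAP activity as a selectivity check on IAP activators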
T3 sequence (P05186 whole entry): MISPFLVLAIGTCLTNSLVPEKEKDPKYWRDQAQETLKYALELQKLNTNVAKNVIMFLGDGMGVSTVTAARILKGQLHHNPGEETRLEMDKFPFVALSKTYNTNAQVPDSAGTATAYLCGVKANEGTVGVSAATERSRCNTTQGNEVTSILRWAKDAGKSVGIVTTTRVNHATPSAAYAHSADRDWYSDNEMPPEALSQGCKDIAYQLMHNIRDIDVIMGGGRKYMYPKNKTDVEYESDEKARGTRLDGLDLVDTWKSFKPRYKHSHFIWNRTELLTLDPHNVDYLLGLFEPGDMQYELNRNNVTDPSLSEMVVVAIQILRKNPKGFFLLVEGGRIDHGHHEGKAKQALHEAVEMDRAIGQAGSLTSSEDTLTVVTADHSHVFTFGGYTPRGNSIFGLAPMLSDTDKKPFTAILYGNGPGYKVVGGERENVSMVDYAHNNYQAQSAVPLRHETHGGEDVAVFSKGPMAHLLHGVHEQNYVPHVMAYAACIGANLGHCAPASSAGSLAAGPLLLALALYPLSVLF

[23] = inhibitors of firefly luciferase expression or activity, dose response, H4 neuroglioma cells, luminescence (AID 1990); format: functional, cell-based
Exodeoxyribonuclease V = Exodeoxyribonuclease V (Escherichia coli (strain K12), UniProt P04993+P07648+P08394); experiment: E. coli RecBCD inhibitors, dose response, counter-screen for AddAB inhibitor project, absorbance, V66 E. coli, mutant T4 phage (AID 492957); format: functional, cell-based, Escherichia coli str. K-12 substr. MG1655
[24] = inhibitors of SNCA 5'UTR-driven translation, confirmation, luminescence, H4 neuroglioblastoma cells, dose confirmation (AID 2454); format: functional, cell-based;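 note: H4 neuroglioblastoma cells carrying an alpha-synuclein 5'UTR luciferase reporter; potency for inhibition of the luciferase signal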
[25] = luciferase reporter signal reduction – luminescence, H4-C neuroglioblastoma cells, dose response (AID 2458); format: functional, cell-based;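 note: H4 neuroglioblastoma cells stably carrying a luciferase reporter gene fusion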
[26] = inhibitors of SNCA 5'UTR-driven reporter translation, confirmation, H4 neuroglioma cells, luminescence (AID 1988); format: functional, cell-based
INS1 = experiment: beta cell apoptosis inhibitors, cytokine rescue, dose response, luminescence, retest (AID 449756); format: functional, cell-based; conditions: Rattus norvegicus;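 note: cell death triggered by IL-1 beta plus TNF-alpha plus IFN-gamma mixture; protective hits raise ATP signal compared with cytokine alone wells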

Serine/threonine-protein phosphatase, sequence (B9W6M3 whole entry): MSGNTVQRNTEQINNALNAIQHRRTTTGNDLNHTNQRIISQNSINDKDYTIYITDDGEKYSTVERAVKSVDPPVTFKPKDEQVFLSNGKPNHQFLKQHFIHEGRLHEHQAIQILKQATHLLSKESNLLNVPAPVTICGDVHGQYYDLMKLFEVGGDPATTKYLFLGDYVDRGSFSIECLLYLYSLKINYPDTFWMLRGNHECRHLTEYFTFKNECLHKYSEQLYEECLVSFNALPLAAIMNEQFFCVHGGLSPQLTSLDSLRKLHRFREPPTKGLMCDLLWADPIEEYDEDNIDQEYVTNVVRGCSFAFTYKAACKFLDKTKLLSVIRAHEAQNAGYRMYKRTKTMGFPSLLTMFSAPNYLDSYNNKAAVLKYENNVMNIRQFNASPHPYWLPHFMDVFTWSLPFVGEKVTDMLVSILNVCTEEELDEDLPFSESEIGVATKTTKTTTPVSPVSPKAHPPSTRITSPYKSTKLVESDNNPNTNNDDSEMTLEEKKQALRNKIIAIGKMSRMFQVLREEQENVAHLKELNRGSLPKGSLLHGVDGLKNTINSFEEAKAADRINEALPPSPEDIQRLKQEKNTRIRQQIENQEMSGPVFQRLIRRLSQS
ATP-dependent molecular chaperone HSP82, sequence (C4YTQ8 whole entry): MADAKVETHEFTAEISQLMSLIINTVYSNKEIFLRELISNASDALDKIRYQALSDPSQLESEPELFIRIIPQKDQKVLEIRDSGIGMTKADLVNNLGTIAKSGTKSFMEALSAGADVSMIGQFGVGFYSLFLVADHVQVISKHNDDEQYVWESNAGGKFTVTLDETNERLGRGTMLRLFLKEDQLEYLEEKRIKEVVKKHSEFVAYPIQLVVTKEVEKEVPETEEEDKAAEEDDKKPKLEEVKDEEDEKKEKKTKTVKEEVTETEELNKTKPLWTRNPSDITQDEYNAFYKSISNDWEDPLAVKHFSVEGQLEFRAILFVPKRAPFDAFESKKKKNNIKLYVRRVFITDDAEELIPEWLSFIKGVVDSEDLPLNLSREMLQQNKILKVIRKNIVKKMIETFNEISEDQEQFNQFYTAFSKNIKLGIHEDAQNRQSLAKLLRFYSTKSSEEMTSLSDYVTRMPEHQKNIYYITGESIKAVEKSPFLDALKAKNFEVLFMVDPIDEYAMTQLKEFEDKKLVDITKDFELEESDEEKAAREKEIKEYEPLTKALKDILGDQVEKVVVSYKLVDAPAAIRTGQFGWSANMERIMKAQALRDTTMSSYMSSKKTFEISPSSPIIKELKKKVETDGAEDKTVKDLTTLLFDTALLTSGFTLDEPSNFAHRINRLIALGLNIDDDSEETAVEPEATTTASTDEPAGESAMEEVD
T2 sequence (P09923 whole entry): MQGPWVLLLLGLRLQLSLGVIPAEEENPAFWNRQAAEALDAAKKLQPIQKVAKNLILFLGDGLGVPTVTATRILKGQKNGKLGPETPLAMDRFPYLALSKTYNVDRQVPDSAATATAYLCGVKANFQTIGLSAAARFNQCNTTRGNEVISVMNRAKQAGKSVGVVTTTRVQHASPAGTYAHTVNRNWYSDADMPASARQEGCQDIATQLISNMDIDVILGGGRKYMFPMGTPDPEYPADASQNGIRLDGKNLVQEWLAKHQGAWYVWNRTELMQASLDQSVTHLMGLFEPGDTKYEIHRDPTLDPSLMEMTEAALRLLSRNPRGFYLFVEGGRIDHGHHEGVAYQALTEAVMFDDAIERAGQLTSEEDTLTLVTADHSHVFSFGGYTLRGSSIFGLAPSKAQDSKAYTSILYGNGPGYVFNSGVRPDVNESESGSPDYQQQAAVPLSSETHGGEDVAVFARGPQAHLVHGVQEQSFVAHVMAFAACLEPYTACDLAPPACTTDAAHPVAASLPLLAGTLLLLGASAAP
Histone-lysine N-methyltransferase NSD2, sequence (O96028 whole entry): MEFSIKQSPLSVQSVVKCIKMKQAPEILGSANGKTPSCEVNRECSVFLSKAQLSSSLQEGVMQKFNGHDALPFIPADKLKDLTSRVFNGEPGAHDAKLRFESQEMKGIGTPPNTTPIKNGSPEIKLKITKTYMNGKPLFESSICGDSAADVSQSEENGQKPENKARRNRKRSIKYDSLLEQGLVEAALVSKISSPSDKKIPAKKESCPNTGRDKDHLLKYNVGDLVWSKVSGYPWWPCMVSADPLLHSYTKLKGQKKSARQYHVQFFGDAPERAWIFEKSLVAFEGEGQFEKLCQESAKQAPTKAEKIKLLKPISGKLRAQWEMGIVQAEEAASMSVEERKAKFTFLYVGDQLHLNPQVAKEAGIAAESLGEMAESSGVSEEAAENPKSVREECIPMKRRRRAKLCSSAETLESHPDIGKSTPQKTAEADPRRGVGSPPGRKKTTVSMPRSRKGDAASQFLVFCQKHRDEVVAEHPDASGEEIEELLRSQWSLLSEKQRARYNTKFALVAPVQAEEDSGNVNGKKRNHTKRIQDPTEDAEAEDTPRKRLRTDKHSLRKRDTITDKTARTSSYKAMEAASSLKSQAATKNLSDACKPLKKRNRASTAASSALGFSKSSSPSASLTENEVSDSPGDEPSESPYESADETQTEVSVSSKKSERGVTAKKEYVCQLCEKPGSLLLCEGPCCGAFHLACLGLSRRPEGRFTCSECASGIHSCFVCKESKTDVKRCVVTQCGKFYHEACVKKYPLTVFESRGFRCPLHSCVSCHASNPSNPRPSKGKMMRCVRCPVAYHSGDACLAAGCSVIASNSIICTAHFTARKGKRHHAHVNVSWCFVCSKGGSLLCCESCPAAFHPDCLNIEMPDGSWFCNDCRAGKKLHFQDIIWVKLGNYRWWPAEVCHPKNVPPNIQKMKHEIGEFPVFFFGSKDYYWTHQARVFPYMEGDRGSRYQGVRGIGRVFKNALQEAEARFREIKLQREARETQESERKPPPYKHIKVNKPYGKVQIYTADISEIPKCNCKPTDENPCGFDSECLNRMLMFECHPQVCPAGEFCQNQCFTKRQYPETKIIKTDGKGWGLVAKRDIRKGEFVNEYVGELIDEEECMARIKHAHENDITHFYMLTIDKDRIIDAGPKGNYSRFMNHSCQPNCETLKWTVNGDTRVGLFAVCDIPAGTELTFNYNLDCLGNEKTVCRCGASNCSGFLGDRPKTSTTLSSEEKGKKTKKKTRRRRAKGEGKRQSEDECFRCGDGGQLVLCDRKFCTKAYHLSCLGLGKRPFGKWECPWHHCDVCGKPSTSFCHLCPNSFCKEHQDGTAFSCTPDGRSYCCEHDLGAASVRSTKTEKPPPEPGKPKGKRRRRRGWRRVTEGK
FAD-linked sulfhydryl oxidase ALR, sequence (P55789 whole entry): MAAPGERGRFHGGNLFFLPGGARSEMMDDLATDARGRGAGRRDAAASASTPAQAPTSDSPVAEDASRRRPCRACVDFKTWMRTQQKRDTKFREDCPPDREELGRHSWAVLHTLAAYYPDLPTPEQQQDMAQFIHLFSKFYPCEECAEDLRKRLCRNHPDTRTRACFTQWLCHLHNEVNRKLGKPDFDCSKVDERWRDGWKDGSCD
Luciferin 4-monooxygenase, sequence (P08659 whole entry): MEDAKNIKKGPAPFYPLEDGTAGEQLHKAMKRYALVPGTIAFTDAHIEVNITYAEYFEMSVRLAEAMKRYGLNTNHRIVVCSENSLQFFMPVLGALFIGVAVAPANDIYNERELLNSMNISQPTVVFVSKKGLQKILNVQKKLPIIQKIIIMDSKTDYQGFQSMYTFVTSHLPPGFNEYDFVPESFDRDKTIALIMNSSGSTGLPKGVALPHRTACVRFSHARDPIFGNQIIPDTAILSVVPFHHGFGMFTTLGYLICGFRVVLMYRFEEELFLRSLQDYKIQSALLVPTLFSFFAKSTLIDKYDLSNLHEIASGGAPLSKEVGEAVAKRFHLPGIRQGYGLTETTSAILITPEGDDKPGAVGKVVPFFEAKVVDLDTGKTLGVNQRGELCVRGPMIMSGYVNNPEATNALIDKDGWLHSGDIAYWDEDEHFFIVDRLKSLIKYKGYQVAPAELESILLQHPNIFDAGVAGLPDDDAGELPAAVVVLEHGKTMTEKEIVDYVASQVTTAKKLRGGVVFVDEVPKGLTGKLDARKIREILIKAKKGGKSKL
Induced myeloid leukemia cell differentiation protein Mcl-1, sequence (Q07820 whole entry): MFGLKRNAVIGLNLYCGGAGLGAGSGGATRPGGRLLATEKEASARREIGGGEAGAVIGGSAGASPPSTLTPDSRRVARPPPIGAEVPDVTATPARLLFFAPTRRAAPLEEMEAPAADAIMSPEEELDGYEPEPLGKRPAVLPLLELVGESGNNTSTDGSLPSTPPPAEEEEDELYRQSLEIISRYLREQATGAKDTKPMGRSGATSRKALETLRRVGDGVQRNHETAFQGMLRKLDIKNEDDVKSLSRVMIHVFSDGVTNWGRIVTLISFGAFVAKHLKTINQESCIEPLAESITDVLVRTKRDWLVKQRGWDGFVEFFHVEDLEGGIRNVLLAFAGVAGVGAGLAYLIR
Intestinal-type alkaline phosphatase (Mus musculus, UniProt P24822), sequence (P24822 whole entry): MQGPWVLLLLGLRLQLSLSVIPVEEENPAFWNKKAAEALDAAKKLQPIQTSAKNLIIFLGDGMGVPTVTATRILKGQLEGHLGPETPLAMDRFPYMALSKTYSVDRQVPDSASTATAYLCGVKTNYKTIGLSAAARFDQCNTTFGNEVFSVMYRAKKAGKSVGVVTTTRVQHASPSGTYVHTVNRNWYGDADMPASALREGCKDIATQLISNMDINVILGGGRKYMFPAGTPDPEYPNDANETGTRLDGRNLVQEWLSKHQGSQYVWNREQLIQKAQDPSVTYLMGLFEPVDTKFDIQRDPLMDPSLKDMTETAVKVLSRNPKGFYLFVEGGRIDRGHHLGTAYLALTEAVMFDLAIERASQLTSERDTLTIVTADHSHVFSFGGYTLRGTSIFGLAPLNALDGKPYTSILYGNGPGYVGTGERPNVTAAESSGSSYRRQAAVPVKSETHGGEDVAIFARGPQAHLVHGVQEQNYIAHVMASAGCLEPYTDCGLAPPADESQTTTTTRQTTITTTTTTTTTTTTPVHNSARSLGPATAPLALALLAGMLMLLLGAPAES

Q: With `COc1ccc2c(c1OC)C(=O)N1c3ccccc3COC21` (stereo unspecified) as the molecule, how does the AC50 (HeLa) read?
A: > 350 µM (inactive)

Q: And the IC50 [1]?
A: > 47.1 µM (inactive)

Q: What about the EC50 [2] of the same molecule?
A: > 53 µM (inactive)

Q: For `COc1ccc(NC(=O)c2ccc3[nH]c(C)c(C)c3c2)cc1`, which AC50 (HeLa) is on record?
A: 47.9 µM (active)

Q: With `O=C1NC(=O)/C(=C\c2ccc(O)cc2O)S1` as the molecule, how does the AC50 [3] read?
A: 2.07 µM (active)

Q: And the IC50 [4]?
A: 2.2 µM (active)

Q: And the AC50 [5]?
A: 0.56 µM (active)

Q: What about the AC50 [6] of the same molecule?
A: 1.78 µM (active)

Q: Which results are given for `CCOc1ccc(-c2nc(CSCC(=O)NCc3ccco3)c(C)o2)cc1`?
A: IC50 (Jurkat): > 79 µM (inactive); EC50 [7]: > 8 µM (not active); IC50 (HEK293 [8]): 25.2 µM (inactive); IC50 (HEK293 [9]; Homo sapiens, HEK293): 54.4 µM (inactive); IC50 (HEK293 [9]; hek293): 53.1 µM (inactive); EC50 (HEK293 [10]): 15.4 µM (not active); IC50 [11]: > 80 µM (inactive); AC50 (HEK293 [12]): 32 µM (active); EC50 (HEK293 [13]): 20.3 µM (inactive)

Q: Which IC50 (Jurkat) does the source give for `CCN(CC)C(=O)CCc1nc(-c2ccc(C(C)(C)C)cc2)no1` here?
A: 47.8 µM (inactive)

Q: What about the IC50 (HEK293 [8]) of the same molecule?
A: 19.7 µM (active)

Q: What about the IC50 (HEK293 [9]; Homo sapiens, HEK293) of the same molecule?
A: 54.7 µM (inactive)

Q: And the IC50 (HEK293 [9]; hek293)?
A: 51.5 µM (inactive)

Q: For `CCCCCCc1c(C)nc(-n2[nH]c(C)c(CCO)c2=O)[nH]c1=O`, which EC50 [14] is on record?
A: > 160 µM (inactive)

Q: And the EC50 [15]?
A: 0.635 µM (active)

Q: And the EC50 [16]?
A: > 180 µM (inactive)

Q: What about the EC50 [17] of the same molecule?
A: > 160 µM (inactive)

Q: Which EC50 [18] does the source give for `O=c1c2ccccc2nc(N/N=C/c2c(O)ccc3ccccc23)n1O` here?
A: 13.6 µM (active)

Q: What about the EC50 [14] of the same molecule?
A: 18.1 µM (active)

Q: And the EC50 (cells)?
A: 1.26 µM (active)

Q: And the IC50 [19]?
A: 75.3 µM (active)

Q: And the EC50 [15]?
A: 0.212 µM (active)

Q: And the EC50 [20]?
A: 31 µM (active)

Q: What about the IC50 [21] of the same molecule?
A: > 119 µM (inactive)

Q: And the EC50 [22]?
A: > 100 µM (inactive)

Q: What about the EC50 [23] of the same molecule?
A: < 0.1 µM (active)

Q: What about the IC50 (Exodeoxyribonuclease V) of the same molecule?
A: > 119 µM (inactive)

Q: What about the EC50 [24] of the same molecule?
A: > 12 µM (inconclusive)

Q: What about the EC50 [25] of the same molecule?
A: 0.601 µM (active)

Q: And the EC50 [26]?
A: < 0.1 µM (active)

Q: What about the AC50 (INS1) of the same molecule?
A: 1.23 µM (active)

Q: And the EC50 [16]?
A: > 180 µM (inactive)

Q: What about the EC50 [17] of the same molecule?
A: > 150 µM (inactive)

From ChEMBL document CHEMBL1201862, “PubChem BioAssay data set” (2004)
